Assay results taken from patent US8173441B2, “Method for applying NMR for ligand discovery or as a drug screening tool” (Universiteit Leiden, priority 2001, dated 2012).
“Also recorded” adds a separate entry of the source.

Columns and labels:
[1] = test system: 26 base synthetic double stranded 5′ biotinylated oligonucleotide (DNA); assay: TINS: 1H-NMR difference spectrum, streptavidin-sepharose resin vs resin with biotinylated oligonucleotide bound; type: binding; settings: 1 mM solution in D2O; oligonucleotide on streptavidin-sepharose resin
[2] = molecular target: T1, C-terminal SH2 domain (CSH2) from the 85 kDa, alpha form of the regulatory subunit of bovine phosphoinositide 3′ kinase (Bos taurus, UniProt P23727); assay: Target immobilized NMR screening (TINS): 1H-NMR difference spectrum, control resin vs resin with CSH2 covalently bound; type: binding; settings: 1 mM each compound in D2O, d11-Tris pH 7.5, 50 mM NaCl, CSH2 on Actigel ALD resin
T1 construct: the c-terminal SH2 domain of p85alpha was prepared as previously described by Siegal et al; made in house
T1 sequence (P23727 624-718 limits assumed): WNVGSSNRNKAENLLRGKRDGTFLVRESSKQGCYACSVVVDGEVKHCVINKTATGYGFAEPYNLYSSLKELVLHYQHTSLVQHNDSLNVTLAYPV
Text: In this example, it was aimed to investigate whether binding of a small molecule to a target bound to the resin would be detectable in the ^1H spectrum. The test system utilized the C-terminal SH2 domain (CSH2) from the 85 kDa, alpha form of the regulatory subunit of bovine phosphoinositide 3′ kinase. This small (110 residues) protein domain has well characterized binding specificity.
To see whether the method of the present invention provides a mode appropriate for efficient screening of a large library of compounds, CSH2 was immobilized on a chemically activated chromatography resin of Actigel ALD by covalent attachment. Attachment occurs via primary amines on the surface of CSH2 as described in the manufacturers literature and therefore is (approximately) randomly oriented.
In detail, the c-terminal SH2 domain of p85alpha was prepared as previously described by Siegal et al. in J. Mol. Biol. 276(1998), 461-478. 11 mg of this domain CSH2 in a buffer consisting of 25 mM HEPES pH 7.5 and 100 mM NaCl was incubated with 1 ml of Actigel ALD (Sterogene, Carlsbad, Calif., USA) according to the manufacturers protocol. This amount corresponds to a 1 mM solution concentration. Unbound sites on the gel were blocked using d11-Tris (Cambridge Isotopes, Andover, Mass., USA). The control resin was derivatized exclusively with d11-Tris.
The potential ligands were dissolved in 99% D2O with d11-Tris.
In all cases, the control and experimental target containing resins were washed three times with the same mixture of test substances.
All NMR spectra were recorded on a Bruker (Bruker, Germany) DMX 600 spectrometer. Spectra typically consisted of 16 to 64 transients of 2 k complex points, were apodized using a sin^2 function and automatically baseline corrected using the supplied XWINNMR software provided by the manufacturer, Bruker, and methods described in the manufacturers literature. Difference spectra were also calculated using XWINNMR

[3] = molecular target: SH2 domain (CSH2) (Bos taurus, UniProt P23727); settings: mimic of the natural ligand; cited from earlier work
SH2 domain (CSH2), sequence (P23727 624-718 limits assumed): as above

Row | SMILES | binding to immobilized oligonucleotide (peaks in the difference spectrum) [1] | binding to immobilized CSH2 (diminution of peaks / peaks in the difference spectrum) [2] | other results
1 | N=C(N)NCCC[C@H](N)C(=O)O [arginine] | do not bind | do not bind | 
2 | c1c[nH]cn1 [imidazole, Imidazole] | do not bind |  | 
3 | NCCCNCCCCNCCCN [spermine] | Only peaks derived from spermine; also recorded: can be detected; also recorded: only spermine peaks remain |  | 
4 | NCC(=O)O [glycine] |  | do not bind | 
5 | N[C@@H](Cc1ccc(OP(=O)(O)O)cc1)C(=O)O [phosphotyrosine] | do not bind | only peaks derived from phosphotyrosine | Kd [3]: ~600 µM; binding to immobilized CSH2 (diminution of peaks / peaks in the difference spectrum) ([2]; listed as pY): clear diminution of the peaks; also recorded: relatively tight binding
6 | CSCC[C@H](N)C(=O)O [methionine] |  |  | binding to immobilized CSH2 (diminution of peaks / peaks in the difference spectrum) ([2]; listed as M): small residual peaks; also recorded: Weak binding
